Experiments:
Annexin A5 (ANXA5) [1] = molecular target: T1, Annexin A5 (ANXA5) (Homo sapiens, UniProt P08758); experiment: in-gel fluorescence after click chemistry; format: binding; details: covalent; 12% SDS-PAGE
T1 construct: recombinant protein purified from E. coli; His-tag labelled for MST
T1 sequence (P08758 2-320): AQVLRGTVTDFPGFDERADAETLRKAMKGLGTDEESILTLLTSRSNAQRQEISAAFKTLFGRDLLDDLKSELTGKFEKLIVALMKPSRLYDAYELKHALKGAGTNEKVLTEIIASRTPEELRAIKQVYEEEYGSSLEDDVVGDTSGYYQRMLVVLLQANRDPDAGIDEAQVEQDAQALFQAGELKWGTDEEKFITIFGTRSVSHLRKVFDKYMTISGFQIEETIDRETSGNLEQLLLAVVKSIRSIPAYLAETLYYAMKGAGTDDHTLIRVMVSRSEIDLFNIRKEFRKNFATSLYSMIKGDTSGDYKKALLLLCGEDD

Annexin A5 (ANXA5) [2] = molecular target: T1, Annexin A5 (ANXA5); experiment: microscale thermophoresis; format: binding

| Kd (Annexin A5 (ANXA5) [2]) [µM] | SMILES | in-gel fluorescence after click chemistry (Annexin A5 (ANXA5) [1]) |
| --- | --- | --- |
| – | C#CCNC(=O)/C=C/c1ccc(O)c(O)c1 [CA probe] | wild‐type ANXA5 could be labeled by CA‐probe |
| 3.68 | O=C(O)/C=C/c1ccc(O)c(O)c1 [CA, caffeic acid] | – |
